Data published in US20260256816A1, “PHARMACEUTICAL COMPOSITION FOR PREVENTING OR TREATING BRAIN TUMOR” (ASTRION INC., priority 2023, published 2026).

What was measured:
U87-MG cells [1] = test: CCK assay, cell proliferation of human glioblastoma cells; type: cell-based; settings: 0, 1, 2, 4 μM, 48 hours, FIG. 2
Procedure: Human glioblastoma cell line U87-MG cells were seeded at a density of 1×10^4 cells/well in a 96-well plate and cultured for 24 hours. Thereafter, the cells were treated with DMSO as a control and the compound AON-MG23-01 or AON-MG23-02 of the present invention, and then cultured for 48 hours. The compound of the present invention was treated at various concentrations of 0, 1, 2, and 4 μM. 10 μL of a CCK reagent was added and reacted for an hour, and the absorbance was then measured at 450 nm.

U87-MG cells [2] = test: Cell migration assay (SPLScar Block); type: cell-based; settings: Homo sapiens, U-87 MG, 24 hours, FIG. 3, read-out: inhibition of cell migration compared to the untreated control
Procedure: Human glioblastoma cell line U87-MG cells were seeded at a density of 8×10^4 cells/well on a SPLScar Block (SPL) plate and cultured for 24 hours. After 24 hours, the block was removed, and the cells were treated with the compound AON-MG23-01 or AON-MG23-02 of the present invention, and cultured at 37° C. in a CO2 incubator for 24 hours. The compound of the present invention was treated at concentrations of 0, 1, 2, and 4 μM. Images were taken before and after culture, and the distance of cell migration was measured using Image J software. Based on the results, whether the cell migration was inhibited was analyzed.

U87-MG cells [3] = test: Matrigel Transwell invasion assay (metastasis inhibition); type: cell-based, human; settings: for degree of penetration into Matrigel compared to the untreated control: 24 hours
Procedure: A human glioblastoma cell line U87-MG was seeded at a density of 8×10^4 cells/well on Matrigel-coated filters (Transwell invasion chambers, Corning), and the cells were then treated with the compound (AON-MG23-01 or AON-MG23-02; each at 0, 1, 2, and 4 μM) of the present invention, and cultured at 37° C. in a CO2 incubator for 24 hours. After the culturing was completed, the cells were fixed and stained using the Diff-Quick Stain kit (Sysmex, Kobe, Japan). Images of the stained cells were taken under a microscope, the cells were counted using Image J software, and statistical analysis was then performed.
A human glioblastoma cell line U87-MG was seeded at a density of 6×10^4 cells/well on the top of a Matrigel-coated filter (Transwell invasion chambers, Corning), treated with 4 μM of the compound AON-MG23-02 of the present invention, 4 μM of the EGFR inhibitor Osimertinib, 100 μM of the ANO1 inhibitor CaCCinh-A01, or a combination of 4 μM of Osimertinib and 100 μM of CaCCinh-A01, and then cultured at 37° C. in a CO2 incubator for 16 hours. After the culturing was completed, the cells were fixed and stained using a Diff-Quick stain kit (Sysmex, Kobe, Japan). Images of the stained cells were taken under a microscope, the cells were counted using Image J software, and statistical analysis was then performed.
A human glioblastoma cell line U87-MG was seeded at a density of 8×10^4 cells/well on the top of a Matrigel-coated filter (Transwell invasion chambers, Corning), and then treated with 0, 8, 16, and 32 μM of each of the compound derivatives AON-MG23-05, AON-MG23-06, AON-MG23-07, and AON-MG23-08 of the present invention, and cultured at 37° C. in a CO2 incubator for 24 hours. After the culturing was completed, the cells were fixed and stained using a Diff-Quick stain kit (Sysmex, Kobe, Japan). Images of the stained cells were taken under a microscope, the cells were counted using Image J software, and statistical analysis was then performed.

ANO1 = test: Western blot of ANO1 protein expression in glioblastoma cell line; type: cell-based, human; settings: U87-MG, 48 hours; for expression of ANO1 protein compared to the untreated control: 0, 8, 16, 32 μM, FIGS. 9A to 9D
Procedure: (§1) It was determined whether the compound of the present invention affects the expression of ANO1 and EGFR proteins in a glioblastoma cell line. The human glioblastoma cell line U87-MG was seeded at a density of 1×10^6 cells in a 60 mm dish, and cultured for 24 hours, and the cells were then treated with the compound (AON-MG23-01 or AON-MG23-02; each at 0, 1, 2, and 4 μM) of the present invention, and cultured for 48 hours. The cultured cells were harvested and the harvested cells were lysed for Western blotting. An anti-ANO1 antibody (Abcam, ab53212), an anti-pEGFR antibody (Cell Signaling, #4407S), an anti-EGFR antibody (Cell Signaling, #4267S), and an anti-α-tubulin antibody (Santacruz, #SC-5286) were used as the antibodies for Western blotting. Protein concentration was quantified using the BSA method (a protein quantitation assay, a bovine serum albumin assay) (Pierce, Cat. 23225). After the cells were lysed, an equal amount (10 μg) of the proteins obtained from the lysed cells was subjected to 10% SDS-PAGE to separate the proteins depending on their molecular weights, transferred to a PVDF membrane (Bio-Rad), and then treated with a blocking buffer (5% skim milk in a Tris-buffered saline (TBS) buffer containing 0.1% Tween 20; TBS-T) at room temperature for an hour. Thereafter, the PVDF membrane was treated with the primary antibody, and reacted at 4° C. for 16 hours. […] The amount of each protein was quantified and analyzed using Image J software.
(§2) The inhibitory effects of the compound AON-MG23-02 of the present invention, the EGFR inhibitor Osimertinib, and the ANO1 inhibitor CaCCinh-A01 on the expression of ANO1, EGFR, and pEGFR proteins in a glioblastoma cell line were compared. […] Protein concentration was quantified using the BSA method (a protein quantitation assay, a bovine serum albumin assay) (Pierce, Cat. 23225). […] The amount of each protein was quantified and analyzed using Image J software. […]

EGFR = test: Western blot of EGFR protein expression in glioblastoma cell line; type: cell-based, human; settings: U87-MG, 48 hours; for expression of EGFR protein compared to the untreated control: 0, 8, 16, 32 μM, FIGS. 9A to 9D
Procedure: as §1, §2

pEGFR = test: Western blot of pEGFR protein expression in glioblastoma cell line; type: cell-based, human; settings: U87-MG; 4 μM; 48 hours; vs 2 μM Osimertinib, 100 μM CaCCinh-A01, combination; FIGS. 8A, 8B
Procedure: The inhibitory effects of the compound AON-MG23-02 of the present invention, the EGFR inhibitor Osimertinib, and the ANO1 inhibitor CaCCinh-A01 on the expression of ANO1, EGFR, and pEGFR proteins in a glioblastoma cell line were compared. A human glioblastoma cell line U87-MG was seeded at a density of 100×10^4 cells/dish in a 60 mm dish, and cultured for 24 hours. Thereafter, the cells were treated with 4 μM of AON-MG23-02, 2 μM of the EGFR inhibitor Osimertinib, 100 μM of the ANO1 inhibitor CaCCinh-A01, or a combination of 2 μM of Osimertinib and 100 μM of CaCCinh-A01, and cultured for 48 hours. The cultured cells were harvested and the harvested cells were lysed for Western blotting. An anti-ANO1 antibody (Abcam, ab53212), an anti-pEGFR antibody (Cell Signaling, #4407S), an anti-EGFR antibody (Cell Signaling, #4267S), and an anti-ACTIN antibody (sigma, #A2066) were used as antibodies for Western blotting. Protein concentration was quantified using the BSA method (a protein quantitation assay, a bovine serum albumin assay) (Pierce, Cat. 23225). […] The amount of each protein was quantified and analyzed using Image J software.

[4] = 4 μM, vs 2 μM Osimertinib, 100 μM CaCCinh-A01, combination, FIGS. 8A, 8B
[5] = 0, 8, 16, 32 μM, FIGS. 10A, 10B

| SMILES | proliferation of U87-MG cells (CCK assay) (U87-MG cells [1]) | inhibition at 4 µM (U87-MG cells [2]) | degree of penetration into Matrigel compared to the untreated control (U87-MG cells [3]; 0, 1, 2, 4 μM, FIG. 4) | degree of penetration into Matrigel compared to the untreated control (U87-MG cells [3]; [5]) | expression of ANO1 protein compared to the untreated control (ANO1) | expression of EGFR protein compared to the untreated control (EGFR) | other results |
| --- | --- | --- | --- | --- | --- | --- | --- |
| COc1cc(N2CCC(N(C)C)CC2)ccc1Nc1ncc(Cl)c(Nc2ccccc2N(C2CC2)S(C)(=O)=O)n1 [AON-MG23-02, N-(2-((5-chloro-2-((4-(4-(dimethylamino)piperidin-1-yl)-2-methoxyphenyl)amino)pyrimidin-4-yl)amino)phenyl)-N-cyclopropylmethanesulfonamide] | inhibits the proliferation of U87-MG cells | > 65% | reduced degree of penetration into Matrigel |  |  |  | degree of penetration into Matrigel compared to untreated control, EGFR inhibitor-treated group and ANO1 inhibitor-treated group (U87-MG cells [3]; 4 μM, 16 hours, vs 4 μM Osimertinib, 100 μM CaCCinh-A01, FIGS. 7A, 7B): reduced degree of penetration into Matrigel; expression of ANO1 protein compared to untreated control, EGFR inhibitor, ANO1 inhibitor and combination groups (ANO1; [4]): reduces the expression; expression of EGFR protein compared to untreated control, EGFR inhibitor, ANO1 inhibitor and combination groups (EGFR; [4]): reduces the expression; expression of pEGFR protein compared to untreated control, EGFR inhibitor, ANO1 inhibitor and combination groups (pEGFR): reduces the expression |
| CCN(Cc1ccc2ccccc2c1)CC(O)c1ccc(CN2Cc3ccccc3C2=O)cc1 (stereo not drawn) [AON-MG23-06, 2-(4-(2-(ethyl(naphthalen-2-ylmethyl)amino)-1-hydroxyethyl)benzyl)isoindolin-1-one] |  |  |  | reduced degree of penetration into Matrigel |  |  |  |
| O=C1c2ccccc2CN1Cc1ccc(CCN(CCO)Cc2ccc3ccccc3c2)cc1 [AON-MG23-05, 2-(4-(2-((2-hydroxyethyl)(naphthalen-2-ylmethyl)amino)ethyl)benzyl)isoindolin-1-one] |  |  |  | reduced degree of penetration into Matrigel | reduced expression | reduced expression |  |
| NC(=O)N(CCc1ccc(CN2Cc3ccccc3C2=O)cc1)Cc1ccc2ccccc2c1 [AON-MG23-08, 1-(naphthalen-2-ylmethyl)-1-(4-((1-oxoisoindolin-2-yl)methyl)phenethyl)urea] |  |  |  | reduced degree of penetration into Matrigel | reduced expression | reduced expression |  |
| COc1cc(N2CCC(N3CCN(C)CC3)CC2)ccc1Nc1ncc(Cl)c(Nc2ccccc2N(C2CC2)S(C)(=O)=O)n1 [AON-MG23-01, N-(2-((5-chloro-2-((2-methoxy-4-(4-(4-methylpiperazin-1-yl)piperidin-1-yl)phenyl)amino)pyrimidin-4-yl)amino)phenyl)-N-cyclopropylmethanesulfonamide] | inhibits the proliferation of U87-MG cells | > 65% | reduced degree of penetration into Matrigel |  |  |  |  |
| O=C1c2ccccc2CN1Cc1ccc(CCP(=O)(Cc2ccc3ccccc3c2)Cc2ccc3ccccc3c2)cc1 [AON-MG23-07, 2-(4-(2-(bis(naphthalen-2-ylmethyl)phosphoryl)ethyl)benzyl)isoindolin-1-one] |  |  |  | reduced degree of penetration into Matrigel |  |  |  |
